In patent publication US20240316047A1, “INHIBITORS OF RNA HELICASE DHX9 AND USES THEREOF” (ACCENT THERAPEUTICS, INC., priority 2022, published 2024):

Target: Human recombinant DHX9 protein (Homo sapiens (Human), UniProt Q08211)
Assay: DHX9 ATPase assay (ADP-Glo)
Type: biochemical
Settings: for IC50: read-out: DHX9 Biochemical Inflection Point

Human recombinant DHX9 protein, sequence (Q08211 whole entry): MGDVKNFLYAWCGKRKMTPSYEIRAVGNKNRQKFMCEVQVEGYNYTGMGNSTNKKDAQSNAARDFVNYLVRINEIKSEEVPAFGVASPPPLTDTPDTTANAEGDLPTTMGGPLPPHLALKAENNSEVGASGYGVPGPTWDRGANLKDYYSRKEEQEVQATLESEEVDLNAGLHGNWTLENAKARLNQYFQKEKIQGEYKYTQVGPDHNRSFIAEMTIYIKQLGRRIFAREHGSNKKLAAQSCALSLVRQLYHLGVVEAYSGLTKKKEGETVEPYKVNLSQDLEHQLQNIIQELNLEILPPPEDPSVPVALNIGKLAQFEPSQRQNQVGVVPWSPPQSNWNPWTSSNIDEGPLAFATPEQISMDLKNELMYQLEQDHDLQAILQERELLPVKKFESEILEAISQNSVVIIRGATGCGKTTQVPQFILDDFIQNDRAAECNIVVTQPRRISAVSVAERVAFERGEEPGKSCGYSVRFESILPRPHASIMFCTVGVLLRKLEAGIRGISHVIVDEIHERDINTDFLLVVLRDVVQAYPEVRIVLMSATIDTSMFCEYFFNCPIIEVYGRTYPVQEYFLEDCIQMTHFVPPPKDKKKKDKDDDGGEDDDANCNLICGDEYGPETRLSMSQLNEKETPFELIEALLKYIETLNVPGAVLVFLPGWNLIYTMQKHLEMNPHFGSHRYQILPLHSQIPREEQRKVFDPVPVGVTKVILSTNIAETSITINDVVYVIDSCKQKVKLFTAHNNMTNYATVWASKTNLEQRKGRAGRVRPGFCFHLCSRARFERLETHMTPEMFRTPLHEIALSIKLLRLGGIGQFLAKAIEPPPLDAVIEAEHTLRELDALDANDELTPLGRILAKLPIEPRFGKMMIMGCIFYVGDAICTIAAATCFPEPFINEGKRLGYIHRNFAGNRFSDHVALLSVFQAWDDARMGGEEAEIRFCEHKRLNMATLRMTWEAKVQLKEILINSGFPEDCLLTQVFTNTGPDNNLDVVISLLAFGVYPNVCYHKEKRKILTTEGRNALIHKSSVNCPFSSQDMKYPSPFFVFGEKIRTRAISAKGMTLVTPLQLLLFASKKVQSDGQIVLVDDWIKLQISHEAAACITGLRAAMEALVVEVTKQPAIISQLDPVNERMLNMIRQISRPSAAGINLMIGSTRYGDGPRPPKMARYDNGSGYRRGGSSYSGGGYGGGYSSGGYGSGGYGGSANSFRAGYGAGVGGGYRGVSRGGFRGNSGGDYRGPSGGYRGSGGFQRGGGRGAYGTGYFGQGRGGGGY

| DHX9 Biochemical Max Inhibition | IC50 [nM] | Structure (SMILES) |
| --- | --- | --- |
| 70.4% | 143 | CN1CCC(n2cc(C(=O)Nc3cc(Cl)cc(NS(C)(=O)=O)c3)cn2)CC1=O (stereo not drawn) [Example 307] |
| 73.9 | 52.6 | Cn1cc(C(=O)Nc2cc(Cl)cc(NS(C)(=O)=O)c2)cc1-c1ncc(OC2CN(CC(F)(F)F)C2)cc1F [Example 615] |
| 70.4% | 39.6 | Cc1cccnc1-n1cc(C(=O)Nc2cc(Cl)cc(NS(C)(=O)=O)c2)cc1C [Example 130] |
| 68% | 61 | CS(=O)(=O)Nc1cc(Br)cc(NC(=O)c2cc(Cc3ccc[nH]3)cs2)c1 [Example 104, 4-((1H-pyrrol-2-yl)methyl)-N-(3-bromo-5-(methylsulfonamido)phenyl)-thiophene-2-carboxamide] |
| 67.1% | 35.3 | CC(C)(O)COc1cccnc1-n1cc(C(=O)Nc2cc(Cl)cc(NS(C)(=O)=O)c2)cn1 [Example 195] |
| 63 | 20.8 | Cc1cc(N2CC(F)(F)C2)cnc1-c1cc(C(=O)Nc2cc(Cl)cc(NS(C)(=O)=O)c2)sc1C [Example 537] |
| 75.7% | 28 | Cc1cc(C(=O)Nc2cc(Cl)cc(NS(C)(=O)=O)c2)cn1-c1ncccc1O [Example 281] |
| 61% | 8.6 | CS(=O)(=O)Nc1cc(Br)cc(NC(=O)c2cc(-c3cnccn3)cs2)c1 [Example 18] |
| 74.6% | 31.8 | Cc1cc(F)cnc1-c1cc(C(=O)Nc2cc(Cl)cc(NS(C)(=O)=O)c2)sc1C [Example 348] |
| 58.7% | 78 | CS(=O)(=O)Nc1cc(Cl)cc(NC(=O)c2cc(-c3ccccc3O)cs2)c1 [Example 106] |
| 81.5% | 10.9 | Cc1cccnc1-c1csc(C(=O)Nc2cc(F)cc(NS(C)(=O)=O)c2)c1 [Example 334] |
| 64.6 | 27.3 | CCS(=O)(=O)Nc1cc(Cl)cc(NC(=O)c2cc(-c3ncc(C)cc3F)n(C)c2)c1 [Example 548] |
| 59 | 7 | CN1CC[C@@H](Oc2cnc(-c3cc(C(=O)Nc4cc(Cl)cc(NS(C)(=O)=O)c4)cn3C)c(F)c2)C1 [Example 640] |
| 77% | 21.6 | CS(=O)(=O)Nc1cc(Cl)cc(NC(=O)c2cc(-c3ccccn3)c(C3CC3)s2)c1 [Example 177, N-(3-chloro-5-(methylsulfonamido)phenyl)-5-cyclopropyl-4-(pyridin-2-yl)thiophene-2-carboxamide] |
| 65.2 | 31.1 | CCS(=O)(=O)Nc1cc(Cl)cc(NC(=O)c2cc(-c3ccc(F)cn3)n(C)c2)c1 [Example 579] |
| 77.5 | 2.4 | Cc1sc(C(=O)Nc2cc(Cl)cc(NS(C)(=O)=O)c2)cc1-c1ncc(C2(O)CN(C)C2)cc1F [Example 681] |
| 73.2 | 54.3 | CS(=O)(=O)Nc1cc(Cl)cc(NC(=O)c2cc(C3CC3)n(-c3ncc(F)cn3)c2)c1 [Example 451] |
| 75.2% | 6.3 | Cc1sc(C(=O)Nc2cc(Cl)cc(NS(C)(=O)=O)c2)cc1-c1ncccc1OCc1ccccc1 [Example 34] |
| 69.1 | 63.5 | CS(=O)(=O)Nc1cc(Cl)cc(NC(=O)c2cc(C(=O)N3CCOCC3)n(-c3ccccn3)c2)c1 [Example 731] |
| 61.3% | 5.6 | CS(=O)(=O)Nc1cc(Br)cc(NC(=O)c2cc(-c3ncccn3)cs2)c1 [Example 25] |
| 70.2 | 104 | Cc1cc(C(=O)Nc2cc(Cl)cc(NS(C)(=O)=O)c2)cn1-c1ncc(N2CC(F)(F)C2)cc1OC1CCC1 [Example 673] |
| 57.8% | 194 | Cc1ccc2sc(C(=O)Nc3cc(Cl)cc(NS(C)(=O)=O)c3)cc2c1 [Example 331] |
| 46.4% | 380 | CS(=O)(=O)Nc1cc(Cl)cc(NC(=O)c2cc(-c3ccccc3)co2)c1 [Example 7] |
| 55.5% | – | CS(=O)(=O)Nc1cc(Cl)cc(NC(=O)c2cc(-c3ccccc3)cs2)c1 [Example 75] |
| 90.9 | 4 | CCS(=O)(=O)Nc1cc(Cl)cc(NC(=O)c2cc(-c3ncc(N4CC(F)C4)cn3)c(C)s2)c1 [Example 509] |
| 70.8 | 26.4 | Cc1sc(C(=O)Nc2cc(Cl)cc(NS(C)(=O)=O)c2)cc1-c1ncc(N2CC(F)(F)C2)cc1F [Example 532, N-(3-chloro-5-methanesulfonamidophenyl)-4-[5-(3,3-difluoroazetidin-1-yl)-3-fluoropyridin-2-yl]-5-methylthiophene-2-carboxamide] |

| DHX9 Biochemical Max Inhibition | IC50 [nM] | Structure (SMILES) |
| --- | --- | --- |
| 92.4 | 57.8 | Cc1cc(N2CCC(F)(F)CC2)cnc1-c1cc(C(=O)Nc2cc(Cl)cc(NS(C)(=O)=O)c2)sc1C [Example 602] |
| 66.6% | 65.6 | Cc1cccnc1-n1cc(C(=O)Nc2cc(Cl)cc(NS(C)(=O)=O)c2)cn1 [Example 54] |
| 58.3 | 50.6 | Cc1cc(C(=O)Nc2cc(Cl)cc(NS(C)(=O)=O)c2)cn1-c1ncc(N2CCC3(C2)CC3(F)F)cc1F (stereo not drawn) [Example 414] |
| 68.7 | 5.3 | Cn1cc(C(=O)Nc2cc(Cl)cc(NS(C)(=O)=O)c2)cc1-c1ncc(N2CCN(C(=O)C3CC3)CC2)cc1F [Example 714] |
| 80.3% | 45.5 | CC(C)c1sc(C(=O)Nc2cc(Cl)cc(NS(C)(=O)=O)c2)cc1-c1ccccn1 [Example 233] |
| 77.7% | 38.5 | CN1CC2(CC(n3cc(C(=O)Nc4cc(Cl)cc(NS(C)(=O)=O)c4)cn3)C2)C1 [Example 311] |
| 94.3% | 25.2 | Cn1cc(C(=O)Nc2cc(Cl)cc(NS(C)(=O)=O)c2)cc1-c1ncc(F)cc1OC(F)F [Example 363] |
| 60 | 37.1 | CCS(=O)(=O)Nc1cc(Cl)cc(NC(=O)c2cc(-c3ncc(OC(C)C)cn3)c(C)s2)c1 [Example 565] |
| 44.6% | 1070 | CS(=O)(=O)Nc1cc(Cl)cc(NC(=O)c2cccc3ccoc23)c1 [Example 135] |
| 57% | 997 | CS(=O)(=O)Nc1cc(Cl)cc(NC(=O)c2cc3cccc(F)c3s2)c1 [Example 297] |
| 66.3% | 19.4 | CN1CCN(c2cnc(-n3cc(C(=O)Nc4cc(Cl)cc(NS(C)(=O)=O)c4)cn3)cn2)CC1=O [Example 184] |
| 67.1% | 20.1 | CN1CCN(c2cnc(-n3cc(C(=O)Nc4cc(Cl)cc(NS(C)(=O)=O)c4)cn3)nc2)CC1=O [Example 183] |
| 72.4% | 96.4 | Cc1cc(C(=O)Nc2cc(Cl)cc(NS(C)(=O)=O)c2)cn1C1CCCC1 [Example 282] |
| 70% | 110 | CS(=O)(=O)Nc1cc(Cl)cc(NC(=O)c2cnn(-c3ncccc3OCc3ccn[nH]3)c2)c1 [Example 253] |
| 78.7% | 20.5 | CCOc1cnc(-c2cc(C(=O)Nc3cc(Cl)cc(NS(=O)(=O)CC)c3)sc2C)nc1 [Example 365] |
| 99.9 | 30 | Cn1cc(C(=O)Nc2cc(Cl)cc(NS(C)(=O)=O)c2)cc1-c1ccc(N2CCN(C(=O)C3CCC3)CC2)cn1 [Example 593] |
| 69.6% | 2.1 | CS(=O)(=O)Nc1cc(Cl)cc(NC(=O)c2cc(-c3ncccc3OCc3cccnc3)cs2)c1 [Example 217] |
| 75.9% | – | CS(=O)(=O)Nc1cc(Cl)cc(NC(=O)c2cc(-c3ncccc3CC(=O)N3CCC3)cs2)c1 [Example 382] |
| 79.8% | 15.6 | COc1cnc(-c2cc(C(=O)Nc3cc(Cl)cc(NS(C)(=O)=O)c3)sc2C)c(Cl)c1 [Example 364] |
| 52.3% | 70.1 | CS(=O)(=O)Nc1cc(Br)cc(NC(=O)c2cnn(-c3ccc(F)cn3)c2)c1 [Example 39] |
| 69.2% | 220 | CS(=O)(=O)Nc1cc(Cl)cc(NC(=O)c2cnn(C3CC4(C3)CN(CC(F)(F)F)C4)c2)c1 [Example 312] |
| 70.6% | 127 | CS(=O)(=O)Nc1cc(Cl)cc(NC(=O)c2cnn([C@@H]3CC[C@H]3O)c2)c1 (single isomer, unassigned) [Example 306a] |
| 75.7% | 3.9 | Cc1sc(C(=O)Nc2cc(Cl)cc(NS(C)(=O)=O)c2)cc1-c1ccc(F)cn1 [Example 35] |
| 79.3 | 2.9 | CS(=O)(=O)Nc1cc(Cl)cc(NC(=O)c2cnn(-c3ncccc3-c3cncc(F)c3)c2)c1 [Example 392] |
| 71.2% | 493 | CS(=O)(=O)Nc1cc(Cl)cc(NC(=O)c2cc(-c3ccccc3)n(CC(F)(F)F)c2)c1 [Example 80] |
| 63.3% | 264 | COc1ccc2cc(C(=O)Nc3cc(Cl)cc(NS(C)(=O)=O)c3)sc2c1 [Example 327] |

| Structure (SMILES) | DHX9 Biochemical Max Inhibition | IC50 [nM] |
| --- | --- | --- |
| Cc1sc(C(=O)Nc2cc(Cl)cc(NS(C)(=O)=O)c2)cc1-c1ncc(N2CC[Si](C)(C)CC2)cc1F [Example 473] | 54.5 | 313 |
| CS(=O)(=O)Nc1cc(F)cc(NC(=O)c2cc(-c3cccnc3)cs2)c1 [Example 105, N-(3-fluoro-5-(methylsulfonamido)phenyl)-4-(pyridin-3-yl)thiophene-2-carboxamide] | 71.7% | 80.3 |
| CS(=O)(=O)Nc1cc(Cl)cc(NC(=O)c2cnn(CCCO)c2)c1 [Example 126, N-(3-chloro-5-(methylsulfonamido)phenyl)-1-(3-hydroxypropyl)-1H-pyrazole-4-carboxamide] | 64.5% | 182 |
